Experimental data published in patent US20010001095A1, “Method for treating plants” (University of Maryland Eatern Shore, priority 1996, published 2001).
Marks after values point to notes of the source that are not given here.

Columns and labels:
[1] = system: C3 crop plants; settings: foliar sprays of aqueous (10-50%) methanol, arid environments; cited from earlier work
[2] = system: soybean (Glycine max (L.) Merr. cv. 'Corsica'); experiment: Field experiments: foliar applications on soybean, seed yield by weight; assay type: in vivo
Description: To test the effects of foliar applications of methanol on soybean (Glycine max (L.) Merr. cv. ‘Corsica’ (maturity group IV)), field experiments were conducted over three years. In the first year, methanol at 0, 62.5 and 125 liters×ha^−1 was combined with urea nitrogen at 0, 12.5 and 25 kg×ha^−1 and sprayed with distilled water in a total volume of 500 liters×ha^−1 on test plants at the R5 stage of development. Latron B-1956 (Rohm and Haas) surfactant at 0.1% was included in all treatments. Treatments were applied from a knapsack sprayer in a randomized complete block design with four replications. Test blocks measured 5m×1.52m (7.6m^2). Plants were harvested by hand, threshed, and seed yield determined by weight. All seed weights are reported at 13% moisture content. […] To test whether PPFMS applied to leaves can substitute for methanol, spray applications of the bacterial alone and in combination with methanol were included in field experiments in the third year. […] The bacteria used in these treatments were isolated from soybean seed coat on plates of AMS medium. From a single bacterial colony, a liquid culture in the same medium was established and used to inoculate 12 liter batches of the bacteria in a Microferm fermentor (New Brunswick Scientific). Cells were harvested by centrifugation and resuspended in distilled water for application to plants in the field.

[3] = system: soybean; experiment: Greenhouse experiment: methanol sprayed on soybean plants from cured (PPFMs absent) or untreated (PPFMs present) seeds, plant dry weight; assay type: in vivo; settings: for Mean dry weight +/− SD: methanol 0.5 ml per plant, harvested 2 weeks after spraying; for % gain over controls (dry weight): vs zero-time control
Description: Application of PPFMs to plants was performed in accordance with the methods detailed in U.S. Pat. No. 5,512,069. Application of methanol to plants was performed in accordance with U.S. Patent No. 5,532,204.
Soybeans were treated with dry heat before planting to lower the population of PPFMs on them (see U.S. Pat. No. 5,512,069). Untreated seeds served as controls.
To test whether the presence of PPFM bacteria is required for foliar applications of methanol to be effective, greenhouse experiments were conducted. Seeds of soybean were cured of their PPFM bacteria with dry heat as previously described (Holland et al, 1992, Plant Physiol 98:942-948)). Cured and untreated seeds wee then plated in the greenhouse in a soil-less potting medium (Pro-Mix BX), Premier Horticulture Inc.). During germination, and while the seedlings established themselves, all plants were watered freely. After 4 weeks, both cured and untreated plants were divided into two groups (each group consisting of approximately 10 pots of 5 plants). One group of cured seedlings and one group of untreated seedlings were maintained as before under freely-watered conditions. […] After 2 weeks, half of the plants in each test group were harvested and dried to constant weight (a zero-time control). The remaining plants were sprayed with methanol (0.5 ml per plant) from an atomizer and were allowed to continue growing under their respective watering regimes for an additional 2 weeks. At the end of this period, all remaining plants were harvested and dried to constant weight.

[4] = second year, M1 = 62.5 liters × ha^−1 methanol, N1 = 12.5 kg × ha^−1 urea
[5] = non-stressed (freely watered), PPFMs present
[6] = stress (wilting) conditions, PPFMs present

SMILES	growth and yield [1]	Yield (seed yield) ([2]; first year, M2N0: 125 liters × ha^−1 methanol, 0 urea, sprayed at R5)	Yield (seed yield) [2, 4]	effect of methanol application on plant dry weight (a measure of yield) ([3]; non-stressed (freely watered) conditions, regardless of whether PPFMs are present)	Mean dry weight +/− SD ([3]; non-stressed (freely watered), PPFMs absent (cured seeds))	% gain over controls (dry weight) ([3]; non-stressed (freely watered), PPFMs absent (cured))	Mean dry weight +/− SD [3, 5]	% gain over controls (dry weight) [3, 5]	growth (increase in plant dry weight) ([3]; stress (wilting) conditions, only when PPFMs are present)	Mean dry weight +/− SD ([3]; stress (wilting) conditions, PPFMs absent (cured seeds))	% gain over controls (dry weight) ([3]; stress (wilting) conditions, PPFMs absent (cured))	Mean dry weight +/− SD [3, 6]	% gain over controls (dry weight) [3, 6]	Yield (seed yield) ([2]; first year, M0N1: 0 methanol, 12.5 kg × ha^−1 urea, sprayed at R5)	Yield (seed yield) ([2]; first year, M0N2: 0 methanol, 25 kg × ha^−1 urea, sprayed at R5)
CO [methanol]	increased growth and yield	2.28	2.4*	does not affect plant dry weight	5.03 ± 1.19 g	80%	6.85 ± 1.69 g	78%	improves growth	2.69 ± 0.65 g	6%	4.64 ± 0.72 g	65%		
NC(N)=O [urea]			2.4											2.18	2.15
